Results from US7632816B2, “Treatment of Alzheimer amyloid deposition” (New York University, priority 2003, dated 2009).
“Also recorded” adds a separate entry of the source. Read-outs that look alike come from different tables or passages of the source. Square brackets hold non-standard residues; d marks the D form. Peptide text beside a SMILES is read from it.

Experiments:
apoE4 [1] = target: T1, apoE4 (Homo sapiens, UniProt P02649, C130R); assay: Toxicity rescue: neutralizing apoE4's effect on Aβ1-42 neurotoxicity, MTT assay in SK-N-SH cells; format: cell-based; conditions: Aβ1-42 100 μmol/L, apoE4 0.5 μmol/L preincubated with 0.5 μmol/L peptide; two day p<0.05, 6 day p<0.01
T1 construct: made in house; host or cells: primary forebrain astrocytes of GFAP-human apoE4 transgenic mice
T1 sequence (P02649 19-317 C130R): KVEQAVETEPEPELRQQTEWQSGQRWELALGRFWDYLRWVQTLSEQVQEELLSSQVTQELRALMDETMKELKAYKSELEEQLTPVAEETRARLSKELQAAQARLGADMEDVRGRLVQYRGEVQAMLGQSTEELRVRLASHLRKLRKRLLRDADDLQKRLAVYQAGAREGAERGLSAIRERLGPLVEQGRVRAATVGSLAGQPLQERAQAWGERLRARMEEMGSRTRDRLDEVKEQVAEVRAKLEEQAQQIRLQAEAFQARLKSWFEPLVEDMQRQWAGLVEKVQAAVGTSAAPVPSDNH
Protocol: (§1) All experiments were run in triplicate. The results from cell culture neurotoxicity studies were evaluated by one-way analysis of variance, followed by a Dunnett's test as a post hoc analysis.

Aβ1-42 = Aβ1-42 toxicity in SK-N-SH cells with peptide added without apoE, MTT assay; format: cell-based, human
Protocol: as §1

[2] = Thioflavin-T assay of the peptides' own amyloid fibril formation; format: physicochemical; conditions: 100 μmol/L peptide, 37° C., up to 10 days
Protocol: All peptides were HFIP treated and reconstituted in 100 mM Tris buffer (pH 7.4) to obtain a 100 μmol/L concentration. […] Peptides were incubated over a period of 10 days at 37° C. Samples containing 15 μg of incubated peptides were taken at indicated intervals and fluorescence was measured as previously described in a Perkin-Elmer LS-50B fluorescence spectrophotometer (Perkin Elmer Instruments, Shelton, Conn.) (Wisniewski et al., “Acceleration of Alzheimer's Fibril Formation by Apolipoprotein E in vitro,” Am. J. Pathol. 145:1030-1035 (1994); Golabek et al., “The Interaction Between Apolipoprotein E and Alzheimer's Amyloid β-peptide is Dependent on β-peptide Conformation,” J. Biol. Chem. 271:10602-10606 (1996); which are hereby incorporated by reference in their entirety). The mean±standard deviation (“SD”) for three separate experiments was plotted in FIG. 1. Differences in amount of fibrils formed by the different peptides were evaluated by means of a repeated measures ANOVA, followed by a Tukey HSD post-hoc test using Statistica (version 6.1) (StatSoft Inc., Tulsa, Okla.).

apoE3 = target: T2, apoE3 (Homo sapiens, UniProt P02649); assay: Thioflavin-T aggregation inhibition: apoE3-promoted Aβ1-42 fibril formation; format: biochemical; conditions: for relative reduction in fluorescence: apoE3 preincubated with Aβ12-28P, then added to Aβ1-42
T2 construct: made in house; host or cells: primary forebrain astrocytes of GFAP-human apoE3 transgenic mice
T2 sequence (P02649 19-317): as the sequence (P02649 19-317 C130R) above, with R112C counted along it
Protocol: (§2) Recombinant apoE3 and apoE4 were purchased from Calbiochem Corp. (San Diego, Calif.). Lipidated apoE3 and apoE4 complexes were prepared from primary cultures of astrocytes derived from Tg mice in which human apoE3 or apoE4 were expressed under the control of the astrocyte-specific glial fibrillary acidic protein (GFAP) promoter as described previously (Fagan et al., “Unique Lipoproteins Secreted by Primary Astrocytes from Wild Type, ApoE (−/−), and Human ApoE Transgenic Mice,” J. Biol. Chem. 274:30001-30007 (1999); DeMattos et al., “Purification and Characterization of Astrocyte-secreted Apolipoprotein E and J-Containing Lipoproteins from Wild-type and Human ApoE Transgenic Mice,” Neurochemistry International 39:415-425 (2001); Sun et al., “Glial Fibrillary Acidic Protein-apolipoprotein E (apoE) Transgenic Mice: Astrocyte-specific Expression and Differing Biological Effects of Astrocyte-secreted ApoE3 and ApoE4 Lipoproteins,” J. Neurosci. 18:3261-3272 (1998); which are hereby incorporated by reference in their entirety). […] The purity of the apoE preparation was assessed by SDS-PAGE.
(§3) Aβ1-40 and Aβ1-42 were studied for comparison. […] Samples containing 15 μg of incubated peptides were taken at indicated intervals and fluorescence was measured as previously described in a Perkin-Elmer LS-50B fluorescence spectrophotometer (Perkin Elmer Instruments, Shelton, Conn.) (Wisniewski et al., “Acceleration of Alzheimer's Fibril Formation by Apolipoprotein E in vitro,” Am. J. Pathol. 145:1030-1035 (1994); Golabek et al., “The Interaction Between Apolipoprotein E and Alzheimer's Amyloid β-peptide is Dependent on β-peptide Conformation,” J. Biol. Chem. 271:10602-10606 (1996); which are hereby incorporated by reference in their entirety). […] Differences in amount of fibrils formed by the different peptides were evaluated by means of a repeated measures ANOVA, followed by a Tukey HSD post-hoc test using Statistica (version 6.1) (StatSoft Inc., Tulsa, Okla.). […]

apoE4 [3] = target: T1, apoE4; assay: Thioflavin-T aggregation inhibition: apoE4-promoted Aβ1-42 fibril formation; format: biochemical
Protocol: as §2, §3

apoE4 [4] = target: T1, apoE4; assay: Competitive inhibition ELISA: apoE4 binding to immobilized Aβ1-40
Protocol: Lipidated apoE4 100 nM was preincubated with an increasing concentration of Aβ12-28P (0-400 nM) in 10 mM Tris buffer pH 7.4 for three hours at 37° C., and then added to the plate (100 μL/well). […] The color reaction was developed with a 3,3,5,5-tetramethybenzidine substrate (Sigma, St. Louis, Mo.), stopped with 2M sulfuric acid, and optical density (“OD”) was read at 450 nm on a 7520 Microplate Reader (Cambridge Technology, Watertown, Mass.). Non-specific binding was determined using bovine serum albumin and/or omitting the apoE4 in the assay. OD values were converted to percentages with the binding of apoE4 in the absence of inhibitor being considered as 100%. The mean±standard deviation from three independent duplicate experiments was plotted in FIG. 3 and analyzed by a one site competition nonlinear regression fit algorithm using GraphPad Prism v4.0 (GraphPad Software, San Diego, Calif.).

CC(=O)N[C@@H](C(=O)N[C@H](Cc1c[nH]cn1)C(=O)N[C@H](Cc1c[nH]cn1)C(=O)N[C@H](CCC(N)=O)C(=O)N[C@H](CCCCN)C(=O)N[C@H](CC(C)C)C(=O)N1CCC[C@@H]1C(=O)N[C@H](Cc1ccccc1)C(=O)N[C@H](Cc1ccccc1)C(=O)N[C@H](C)C(=O)N[C@H](CCC(=O)O)C(=O)N[C@H](CC(=O)O)C(=O)N[C@@H](C(=O)NCC(=O)N[C@H](CO)C(=O)N[C@H](CC(N)=O)C(=O)N[C@H](CCCCN)C(N)=O)C(C)C)C(C)C [Aβ12-28P] (Ac-[dV][dH][dH][dQ][dK][dL][dP][dF][dF][dA][dE][dD][dV]G[dS][dN][dK]-NH2)
rescue of cell viability from apoE4-enhanced Aβ1-42 toxicity (apoE4 [1]): significant rescue of the cell viability; also recorded: could be neutralized | cell viability, Aβ1-42 incubated with peptide (Aβ1-42; 10 μmol/L Aβ1-42 with 10 μmol/L peptide): Much more striking improvement in cell viability | cell viability, Aβ1-42 incubated with peptide without apoE (Aβ1-42; Aβ1-42 100 μmol/L, peptide 0.5 μmol/L, six days): slightly increased cell viability | fibril formation (Thioflavin-T fluorescence) [2]: did not form any fibrils; also recorded: non-fibrillogenic; also recorded: No fibrils were formed | relative reduction in fluorescence (apoE3; after 24 h of incubation): 14.5% | relative reduction in fluorescence (apoE3; day six): 48.3% | chaperoning effect of apoE3 on Aβ1-42 fibril formation (apoE3; apoE3 preincubated with equimolar Aβ12-28P, p<0.05): significantly reduced | relative reduction in fluorescence (apoE4 [3]): 25.3% | relative reduction in fluorescence (apoE4 [3]; apoE4 preincubated with Aβ12-28P, then added to Aβ1-42, day six): 52.3% | chaperoning effect of apoE4 on Aβ1-42 fibril formation (apoE4 [3]; apoE4 preincubated with equimolar Aβ12-28P, p<0.01): significantly reduced | IC50 (apoE4 [4]; 100 nM lipidated apoE4 preincubated with 0-400 nM peptide, one-site competition fit): 36.7 nM | Ki (apoE4 [4]; read-out: inhibition constant (KI)): 11.4 nM
